The text below walks through data of article PMC6747525, “Chk1 Inhibitor MK-8776 Restores the Sensitivity of Chemotherapeutics in P-glycoprotein Overexpressing Cancer Cells” (International Journal of Molecular Sciences, 2019).

Series [1] has as its target T1, P-glycoprotein (P-gp) (Homo sapiens, UniProt P08183).
T1 construct: gene ABCB1
The series can be described thus: biochemical.

In series [2] the target is T1, P-glycoprotein (P-gp).

T1 sequence (P08183 whole entry): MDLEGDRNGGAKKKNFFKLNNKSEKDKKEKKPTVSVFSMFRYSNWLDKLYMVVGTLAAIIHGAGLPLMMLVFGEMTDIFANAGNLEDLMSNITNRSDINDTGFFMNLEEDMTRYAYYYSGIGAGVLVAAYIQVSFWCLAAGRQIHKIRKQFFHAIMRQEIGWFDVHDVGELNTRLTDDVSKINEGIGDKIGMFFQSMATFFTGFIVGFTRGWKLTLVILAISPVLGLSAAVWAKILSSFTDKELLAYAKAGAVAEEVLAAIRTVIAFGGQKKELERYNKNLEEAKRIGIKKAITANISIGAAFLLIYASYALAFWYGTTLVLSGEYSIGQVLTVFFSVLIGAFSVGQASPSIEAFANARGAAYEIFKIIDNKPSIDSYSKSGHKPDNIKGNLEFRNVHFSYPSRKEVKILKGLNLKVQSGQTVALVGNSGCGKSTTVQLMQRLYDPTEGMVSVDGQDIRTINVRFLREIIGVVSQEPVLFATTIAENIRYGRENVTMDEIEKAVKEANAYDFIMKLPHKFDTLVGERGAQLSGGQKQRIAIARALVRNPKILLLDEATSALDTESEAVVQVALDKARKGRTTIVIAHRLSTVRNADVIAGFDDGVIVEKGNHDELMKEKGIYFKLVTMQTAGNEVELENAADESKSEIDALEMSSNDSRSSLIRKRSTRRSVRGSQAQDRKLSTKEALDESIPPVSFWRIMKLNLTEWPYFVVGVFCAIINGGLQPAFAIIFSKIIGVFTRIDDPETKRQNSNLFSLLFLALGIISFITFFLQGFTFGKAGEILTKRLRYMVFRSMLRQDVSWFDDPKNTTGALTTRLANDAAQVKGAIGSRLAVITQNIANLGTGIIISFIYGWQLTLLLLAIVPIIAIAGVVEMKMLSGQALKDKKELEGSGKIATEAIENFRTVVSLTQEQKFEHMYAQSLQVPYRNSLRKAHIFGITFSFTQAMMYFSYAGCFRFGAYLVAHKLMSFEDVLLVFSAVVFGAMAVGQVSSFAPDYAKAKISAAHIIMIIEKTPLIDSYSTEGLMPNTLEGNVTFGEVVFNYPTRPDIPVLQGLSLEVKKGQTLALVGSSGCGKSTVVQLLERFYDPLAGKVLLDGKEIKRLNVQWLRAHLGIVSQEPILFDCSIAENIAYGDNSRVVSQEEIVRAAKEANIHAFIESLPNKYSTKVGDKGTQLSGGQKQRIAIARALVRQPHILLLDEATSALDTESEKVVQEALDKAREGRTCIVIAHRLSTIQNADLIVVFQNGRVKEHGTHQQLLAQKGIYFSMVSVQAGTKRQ

In turn, `Cn1cc(-c2cnn3c(N)c(Br)c([C@@H]4CCCNC4)nc23)cn1` [MK-8776] showed an EC50 in series [1] of 3.8 µM. Regarding `CC(=O)O[C@H]1C(=O)[C@@]2(C)[C@H]([C@H](OC(=O)c3ccccc3)[C@]3(O)C[C@H](OC(=O)[C@H](O)[C@@H](NC(=O)c4ccccc4)c4ccccc4)C(C)=C1C3(C)C)[C@]1(OC(C)=O)CO[C@@H]1C[C@@H]2O` [paclitaxel], in series [2], the “[3H]-paclitaxel accumulation and efflux in P-gp-overexpressing KB-C2 versus pare” value was “[^3H]-paclitaxel efflux increased significantly compared with that in their parental KB-3-1 cells”.
